Structures can show the parent of a compound that is named as a salt.

The record followed here is patent EP1000623A1, “Use of epinastine as antitussivum” (Boehringer Ingelheim International GmbH, priority 1998, dated 2000).

The data set has as its system place preference. Briefly: Place conditioning (conditioned place preference, shuttle box). It is filed as in vivo, Male ICR mice. As to conditions: 1 mg/kg, s.c.; mean ± S.E., n=8; time in drug-paired minus saline-paired place, 900-s session. As to the method:
Male ICR mice (6 weeks old; Tokyo Laboratory Animals Science Co., Ltd., Tokyo, Japan), weighing about 30 g, were used. They had free access to food and water in an animal room which was maintained at 22 ± 1°C with a 12-hour light-dark cycle. This study was carried out in accordance with the Declaration of Helsinki and/or with the guide for the care and use of laboratory animals as adopted by the committee on the care and use of laboratory animals of Hoshi University, which is accredited by the Ministry of Education, Science, Sports and Culture, Japan.
Place conditioning was conducted as previously using a minor modification of an unbaised procedure [J. Kamei et al., Eur. J. Pharmacol. 318 (1996) 251]. The apparatus used was a shuttle box (15 x 30 x 15 cm: w x 1 x h) which was divided into two compartments of equal size. […] The time spent in each compartment during a 900-s session was then measured in a blinded fashion by an infrared beam sensor (KN-80, Natume, Tokyo, Japan). […]
The potency ration was calculated according to a statistical program (Program 11 of the Pharmacological Calculations System) (8). Conditioning scores represent the time spent in the drug paired place minus the time spent in the saline-paired place, and are expressed as mean ± S.E. The Wilcoxon test was used to determine whether individual doses produced a significant conditioning (P<0.05).

The compound `NC1=NCC2c3ccccc3Cc3ccccc3N12` (stereo not shown) [epinastine, epinastine hydrochloride] displayed a mean conditioning score of 20.3 ± 61.8 s.
